Data as given in patent US10945771B2, “Azabicyclo[4.1.0]heptane allosteric modulators of the M4 muscarinic acetylcholine receptor” (Merck Sharp & Dohme Corp., priority 2017, dated 2021).

Target: T1, human M4 muscarinic acetylcholine receptor (Homo sapiens, UniProt P08173)
T1 construct: expressed in transfected cells; host or cells: CHO-K1
T1 sequence (P08173 1-479): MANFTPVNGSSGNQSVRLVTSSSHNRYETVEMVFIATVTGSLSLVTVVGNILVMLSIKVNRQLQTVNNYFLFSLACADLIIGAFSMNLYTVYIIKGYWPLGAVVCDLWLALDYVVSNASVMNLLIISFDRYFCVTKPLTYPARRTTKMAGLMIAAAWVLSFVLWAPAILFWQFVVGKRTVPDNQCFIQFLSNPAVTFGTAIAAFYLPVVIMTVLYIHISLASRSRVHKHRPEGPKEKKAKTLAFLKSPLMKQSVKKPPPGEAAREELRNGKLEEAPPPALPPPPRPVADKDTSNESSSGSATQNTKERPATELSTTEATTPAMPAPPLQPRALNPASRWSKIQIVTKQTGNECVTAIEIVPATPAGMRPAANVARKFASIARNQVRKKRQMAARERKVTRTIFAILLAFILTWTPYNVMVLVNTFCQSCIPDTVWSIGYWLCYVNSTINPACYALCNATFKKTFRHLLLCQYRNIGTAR
Test: human FLIPR-based M4 PAM assay (Ca2+ dye fluorescence, CHO-K1 cells with human M4 receptor and Gαqi5)
Format: cell-based
Conditions: inflection point (IP) of dose response curve, FLIPR Tetra, acetylcholine at 20% of maximum response
Method: In a typical experiment the M4 muscarinic acetylcholine receptor modulating activity of the compounds of the present invention was determined in accordance with the following experimental method. CHO-K1 cells stably transfected with human M4 receptor and chimeric G-protein Gαqi5 (Coward P, et al., Analytical Biochemistry, 270:242-248 (1999)) are thawed from liquid N2 storage, resuspended in growth medium, plated in black, clear bottom 384 well plates, and incubated 16-20 hours at 37° C., 5% CO2. On the day of assay, growth medium is removed, the cells are washed 2 times with wash buffer, and cells are incubated in dye loading buffer at 37° C., 5% CO2 for ˜1 hour. Following dye loading the cell plates are placed in a FLIPR Tetra instrument and while monitoring dye fluorescence (excitation […]), 10 uL of test substance at increasing concentrations is added, and fluorescence values are recorded for 4 min. Next, 10 uL of acetylcholine is added (final concentration calculated so as to achieve 20% of the maximum acetycholine response), and the fluorescence reading is continued for 3.5 min. In some cases, a third addition of acetylcholine (final concentration calculated to achieve 70% of the maximal acetylcholine response) is performed. The resulting dose response curves are fit to a 4 parameter logistic equation and the final result is determined as the inflection point (IP) of the curve
CHO-K1 cells stably transfected with human M4 receptor and chimeric G-protein Gαqi5 are thawed from liquid N2 storage, resuspended in growth medium, plated in black, clear bottom 384 well plates, and incubated 16-20 hours at 37° C., 5% CO2.
On the day of assay, growth medium is removed, the cells are washed 2 times with wash buffer, and cells are incubated in dye loading buffer at 37° C., 5% CO2 for ˜1 h. Following dye loading the cell plates are placed in a FLIPR Tetra instrument and while monitoring dye fluorescence ([…]), 10 uL of test substance at increasing concentrations is added, and fluorescence values are recorded for 4 min. Next, 10 uL of acetylcholine is added (final concentration calculated so as to achieve 20% of the maximum acetycholine response), and the fluorescence reading is continued for 3.5 min. In some cases, a third addition of acetylcholine (final concentration calculated to achieve 70% of the maximal acetylcholine response) is performed.

EC50 [nM]	Compound
506	CCc1cc2c(nc1N1CCC(OCC3(C)CC3)C3CC31)C(CO)N(C)C2=O (single isomer, unassigned) [Example 12, 3-ethyl-7-(hydroxymethyl)-6-methyl-2-(5-((1-methylcyclopropyl)methoxy)-2-azabicyclo[4.1.0]heptan-2-yl)-6,7-dihydro-5H-pyrrolo[3,4-b]pyridin-5-one]
50	Cc1c(N2CCC(OCC3(C)CC3)C3CC32)nc2c(c1C)C(=O)N(CCC#N)C2 (single isomer, unassigned) [Example 15, 3-(3,4-dimethyl-2-(5-((1-methylcyclopropyl)methoxy)-2-azabicyclo[4.1.0]heptan-2-yl)-5-oxo-5,7-dihydro-6H-pyrrolo[3,4-b]pyridin-6-yl)propanenitrile]
1530	Cc1c(N2CCC(OCC3(C)CC3)C3CC32)nc2c(c1C)C(=O)N(CCC#N)C2 (single isomer, unassigned) [Example 16, 3-(3,4-dimethyl-2-(5-((1-methylcyclopropyl)methoxy)-2-azabicyclo[4.1.0]heptan-2-yl)-5-oxo-5,7-dihydro-6H-pyrrolo[3,4-b]pyridin-6-yl)propanenitrile]
103	Cc1c(N2CCC(OCC3(C)CC3)C3CC32)nc2c(c1C)C(=O)N(CCS(C)(=O)=O)C2 (single isomer, unassigned) [Example 17, 3,4-dimethyl-2-(5-((1-methylcyclopropyl)methoxy)-2-azabicyclo[4.1.0]heptan-2-yl)-6-(2-(methylsulfonyl)ethyl)-6,7-dihydro-5H-pyrrolo[3,4-b]pyridin-5-one]
20200	Cc1c(N2CCC(OCC3(C)CC3)C3CC32)nc2c(c1C)C(=O)N(CCS(C)(=O)=O)C2 (single isomer, unassigned) [Example 18]
12000	Cc1c(N2CCC(OCC3(C)CC3)C3CC32)nc2c(c1C)C(=O)N(CC(C)(C)O)C2 (single isomer, unassigned) [Example 20, 6-(2-hydroxy-2-methylpropyl)-3,4-dimethyl-2-(5-((1-methylcyclopropyl)methoxy)-2-azabicyclo[4.1.0]heptan-2-yl)-6,7-dihydro-5H-pyrrolo[3,4-b]pyridin-5-one]
157	Cc1c(N2CCC(OCC3(C)CC3)C3CC32)nc2c(c1C)C(=O)N1CCC(O)CC21 (single isomer, unassigned) [Example 21, 9-hydroxy-3,4-dimethyl-2-(5-((1-methylcyclopropyl)methoxy)-2-azabicyclo[4.1.0]heptan-2-yl)-8,9,10,10a-tetrahydropyrido[2,3-a]indolizin-5(7H)-one]
116	Cc1c(N2CCC(OCC3(C)CC3)C3CC32)nc2c(c1C)C(=O)N1CCC(O)CC21 (single isomer, unassigned) [Example 22, 9-hydroxy-3,4-dimethyl-2-(5-((1-methylcyclopropyl)methoxy)-2-azabicyclo[4.1.0]heptan-2-yl)-8,9,10,10a-tetrahydropyrido[2,3-a]indolizin-5(7H)-one]
2350	Cc1c(N2CCC(OCC3(C)CC3)C3CC32)nc2c(c1C)C(=O)N1CCC(O)CC21 (single isomer, unassigned) [Example 23, 9-hydroxy-3,4-dimethyl-2-(5-((1-methylcyclopropyl)methoxy)-2-azabicyclo[4.1.0]heptan-2-yl)-8,9,10,10a-tetrahydropyrido[2,3-a]indolizin-5(7H)-one]
2440	Cc1c(N2CCC(OCC3(C)CC3)C3CC32)nc2c(c1C)C(=O)N1CCC(O)CC21 (single isomer, unassigned) [Example 24, 9-hydroxy-3,4-dimethyl-2-(5-((1-methylcyclopropyl)methoxy)-2-azabicyclo[4.1.0]heptan-2-yl)-8,9,10,10a-tetrahydropyrido[2,3-a]indolizin-5(7H)-one]

The next lines start with the compound.

Compound	EC50 [nM]
Cc1c(N2CCC(OCC3(C)CC3)C3CC32)nc2c(c1C)C(=O)NC2 (single isomer, unassigned) [Example 1, 3,4-dimethyl-2-(5-((1-methylcyclopropyl)methoxy)-2-azabicyclo[4.1.0]heptan-2-yl)-6,7-dihydro-5H-pyrrolo[3,4-b]pyridin-5-one]	39
Cc1c(N2CCC(OCC3(C)CC3)C3CC32)nc2c(c1C)C(=O)NC2 (single isomer, unassigned) [Example 2, 3,4-dimethyl-2-(5-((1-methylcyclopropyl)methoxy)-2-azabicyclo[4.1.0]heptan-2-yl)-6,7-dihydro-5H-pyrrolo[3,4-b]pyridin-5-one]	1320
Cc1cc2c(nc1N1CCC(OCC3(C)CC3)C3CC31)CNC2=O (single isomer, unassigned) [Example 3, 3-methyl-2-(5-((1-methylcyclopropyl)methoxy)-2-azabicyclo[4.1.0]heptan-2-yl)-6,7-dihydro-5H-pyrrolo[3,4-b]pyridin-5-one]	40
Cc1cc2c(nc1N1CCC(OCC3(C)CC3)C3CC31)CNC2=O (single isomer, unassigned) [Example 4, 3-methyl-2-(5-((1-methylcyclopropyl)methoxy)-2-azabicyclo[4.1.0]heptan-2-yl)-6,7-dihydro-5H-pyrrolo[3,4-b]pyridin-5-one]	1670
Cc1c(N2CCC(OCC3(C)CC3)C3CC32)nc2c(c1C)C(=O)N(C)C2CO (single isomer, unassigned) [Example 5, 7-(hydroxymethyl)-3,4,6-trimethyl-2-(5-((1-methylcyclopropyl)methoxy)-2-azabicyclo[4.1.0]heptan-2-yl)-6,7-dihydro-5H-pyrrolo[3,4-b]pyridin-5-one]	117
Cc1c(N2CCC(OCC3(C)CC3)C3CC32)nc2c(c1C)C(=O)N(C)C2CO (single isomer, unassigned) [Example 6, 7-(hydroxymethyl)-3,4,6-trimethyl-2-(5-((1-methylcyclopropyl)methoxy)-2-azabicyclo[4.1.0]heptan-2-yl)-6,7-dihydro-5H-pyrrolo[3,4-b]pyridin-5-one]	711
Cc1c(N2CCC(OCC3(C)CC3)C3CC32)nc2c(c1C)C(=O)N(C)C2CO (single isomer, unassigned) [Example 7, 7-(hydroxymethyl)-3,4,6-trimethyl-2-(5-((1-methylcyclopropyl)methoxy)-2-azabicyclo[4.1.0]heptan-2-yl)-6,7-dihydro-5H-pyrrolo[3,4-b]pyridin-5-one]	659
Cc1c(N2CCC(OCC3(C)CC3)C3CC32)nc2c(c1C)C(=O)N(C)C2CO (single isomer, unassigned) [Example 8, 7-(hydroxymethyl)-3,4,6-trimethyl-2-(5-((1-methylcyclopropyl)methoxy)-2-azabicyclo[4.1.0]heptan-2-yl)-6,7-dihydro-5H-pyrrolo[3,4-b]pyridin-5-one]	3000
CCc1cc2c(nc1N1CCC(OCC3(C)CC3)C3CC31)C(CO)N(C)C2=O (single isomer, unassigned) [Example 9, 3-ethyl-7-(hydroxymethyl)-6-methyl-2-(5-((1-methylcyclopropyl)methoxy)-2-azabicyclo[4.1.0]heptan-2-yl)-6,7-dihydro-5H-pyrrolo[3,4-b]pyridin-5-one]	8090
CCc1cc2c(nc1N1CCC(OCC3(C)CC3)C3CC31)C(CO)N(C)C2=O (single isomer, unassigned) [Example 10, 3-ethyl-7-(hydroxymethyl)-6-methyl-2-(5-((1-methylcyclopropyl)methoxy)-2-azabicyclo[4.1.0]heptan-2-yl)-6,7-dihydro-5H-pyrrolo[3,4-b]pyridin-5-one]	47
CCc1cc2c(nc1N1CCC(OCC3(C)CC3)C3CC31)C(CO)N(C)C2=O (single isomer, unassigned) [Example 11, 3-ethyl-7-(hydroxymethyl)-6-methyl-2-(5-((1-methylcyclopropyl)methoxy)-2-azabicyclo[4.1.0]heptan-2-yl)-6,7-dihydro-5H-pyrrolo[3,4-b]pyridin-5-one]	742
